From patent US9340590B2 (priority 2011, dated 2016)
Positions of bridges follow the written chain, without caps; N, C: chain ends. Non-standard residues stand in square brackets, D forms with d. Residues, ends and D or L forms follow the SMILES beside them. Lys(Me2) = CN(C)CCCC[C@H](N)C(=O)O

Biological target: hNav1.7 (Homo sapiens, UniProt Q15858)
Assay: cell-based
Assay type: cell-based
Details: IonWorks Quattro, Use; read-out: IWQ Use Nav1.7

hNav1.7, sequence (Q15858 whole entry, looked up): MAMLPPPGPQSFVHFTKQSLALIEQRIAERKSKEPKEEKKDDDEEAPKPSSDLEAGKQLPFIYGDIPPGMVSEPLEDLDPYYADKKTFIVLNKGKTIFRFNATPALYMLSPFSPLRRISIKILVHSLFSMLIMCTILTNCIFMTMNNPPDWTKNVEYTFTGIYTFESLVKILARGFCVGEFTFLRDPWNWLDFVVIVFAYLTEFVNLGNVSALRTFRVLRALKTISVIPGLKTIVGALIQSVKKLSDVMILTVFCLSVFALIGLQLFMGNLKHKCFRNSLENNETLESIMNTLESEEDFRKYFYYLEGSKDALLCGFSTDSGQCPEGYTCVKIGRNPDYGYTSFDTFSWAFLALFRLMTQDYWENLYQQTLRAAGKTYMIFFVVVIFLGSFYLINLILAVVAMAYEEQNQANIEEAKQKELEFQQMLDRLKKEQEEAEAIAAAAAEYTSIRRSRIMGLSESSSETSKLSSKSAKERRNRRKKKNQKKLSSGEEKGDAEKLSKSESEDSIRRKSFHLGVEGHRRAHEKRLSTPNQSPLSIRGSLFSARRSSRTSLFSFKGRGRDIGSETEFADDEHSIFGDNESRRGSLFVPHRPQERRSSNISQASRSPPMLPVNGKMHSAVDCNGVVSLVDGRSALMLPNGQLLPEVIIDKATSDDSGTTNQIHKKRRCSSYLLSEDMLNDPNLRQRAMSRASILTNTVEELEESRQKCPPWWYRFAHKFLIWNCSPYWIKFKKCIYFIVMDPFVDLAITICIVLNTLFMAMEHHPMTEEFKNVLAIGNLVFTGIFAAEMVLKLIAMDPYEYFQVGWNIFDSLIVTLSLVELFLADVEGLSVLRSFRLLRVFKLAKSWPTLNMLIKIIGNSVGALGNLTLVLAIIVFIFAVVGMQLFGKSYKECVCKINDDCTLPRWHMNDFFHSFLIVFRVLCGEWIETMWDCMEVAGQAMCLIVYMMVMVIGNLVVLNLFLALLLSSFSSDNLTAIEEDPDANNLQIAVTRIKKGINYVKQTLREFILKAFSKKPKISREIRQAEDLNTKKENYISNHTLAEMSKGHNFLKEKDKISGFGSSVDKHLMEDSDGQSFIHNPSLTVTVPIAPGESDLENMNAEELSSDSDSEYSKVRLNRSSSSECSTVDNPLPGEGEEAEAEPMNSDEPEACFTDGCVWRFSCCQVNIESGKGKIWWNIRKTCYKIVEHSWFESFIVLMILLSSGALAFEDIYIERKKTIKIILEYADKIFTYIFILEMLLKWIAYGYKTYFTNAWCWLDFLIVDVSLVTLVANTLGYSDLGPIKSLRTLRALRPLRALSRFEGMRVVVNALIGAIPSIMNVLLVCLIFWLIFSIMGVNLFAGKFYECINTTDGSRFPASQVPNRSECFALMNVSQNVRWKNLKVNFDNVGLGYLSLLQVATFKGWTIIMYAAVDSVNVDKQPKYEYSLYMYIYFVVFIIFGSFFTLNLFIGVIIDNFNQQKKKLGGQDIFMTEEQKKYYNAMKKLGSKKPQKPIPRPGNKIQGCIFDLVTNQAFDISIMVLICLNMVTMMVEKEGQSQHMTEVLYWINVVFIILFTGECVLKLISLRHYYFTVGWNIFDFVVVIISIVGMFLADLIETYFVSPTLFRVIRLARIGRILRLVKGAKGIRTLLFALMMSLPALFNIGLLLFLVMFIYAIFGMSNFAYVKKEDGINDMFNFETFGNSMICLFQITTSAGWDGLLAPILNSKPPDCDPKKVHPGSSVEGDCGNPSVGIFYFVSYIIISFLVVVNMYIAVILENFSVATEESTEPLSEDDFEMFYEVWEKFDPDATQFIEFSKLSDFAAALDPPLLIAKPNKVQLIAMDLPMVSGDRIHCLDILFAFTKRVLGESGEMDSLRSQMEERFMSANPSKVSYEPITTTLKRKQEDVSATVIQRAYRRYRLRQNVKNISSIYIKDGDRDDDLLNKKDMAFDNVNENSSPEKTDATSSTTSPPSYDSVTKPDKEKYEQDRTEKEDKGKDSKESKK

`CSCC[C@@H]1NC(=O)[C@H](Cc2ccccc2)NC(=O)CNC(=O)[C@H](CC(C)C)NC(=O)[C@@H](NC(=O)[C@@H](N)CC(=O)O)CSSC[C@@H]2NC(=O)[C@@H]3CSSC[C@@H](C(=O)N[C@@H](CCCCN)C(=O)N[C@@H](Cc4ccc(O)cc4)C(=O)N[C@H](C(=O)N[C@@H](Cc4ccccc4)C(N)=O)C(C)C)NC(=O)[C@H](Cc4c[nH]c5ccccc45)NC(=O)[C@H](CCCCN)NC(=O)[C@H](Cc4c[nH]cn4)NC(=O)[C@H]([C@@H](C)O)NC(=O)[C@H](CCCNC(=N)N)NC(=O)[C@H](CO)NC(=O)[C@H](CSSC[C@H](NC(=O)[C@H](CCCCN)NC(=O)[C@H](CCCNC(=N)N)NC1=O)C(=O)N[C@@H](Cc1ccc(O)cc1)C(=O)N1CCC[C@H]1C(=O)N[C@@H](CC(=O)O)C(=O)N[C@@H](CC(N)=O)C(=O)N[C@@H](CC(=O)O)C(=O)N[C@@H](CCCCN)C(=O)N3)NC(=O)[C@H](C(C)C)NC(=O)[C@H](CC(C)C)NC(=O)[C@H](CC(N)=O)NC(=O)[C@@H]1CCCN1C(=O)[C@H](CCCNC(=N)N)NC2=O` [compound 299] (H-DCLGFMRKCYPDNDKCCRPNLVCSRTHKWCKYVF-NH2; disulfide 2-17, 9-23, 16-30) and `CSCC[C@@H]1NC(=O)[C@H](Cc2ccccc2)NC(=O)CNC(=O)[C@H](CC(C)C)NC(=O)[C@@H](NC(=O)[C@@H](N)CC(=O)O)CSSC[C@@H]2NC(=O)[C@@H]3CSSC[C@@H](C(=O)N[C@@H](CCCCN)C(=O)N[C@@H](Cc4ccc(O)cc4)C(=O)N[C@H](C(=O)N[C@@H](Cc4ccccc4)C(N)=O)C(C)C)NC(=O)[C@H](Cc4c[nH]c5ccccc45)NC(=O)[C@H](CCCCN)NC(=O)[C@H](Cc4c[nH]cn4)NC(=O)[C@H]([C@@H](C)O)NC(=O)[C@H](CCCNC(=N)N)NC(=O)[C@H](CO)NC(=O)[C@H](CSSC[C@H](NC(=O)[C@H](CCCCN)NC(=O)[C@H](CCCNC(=N)N)NC1=O)C(=O)N[C@@H](Cc1ccccc1)C(=O)N1CCC[C@H]1C(=O)N[C@@H](CC(=O)O)C(=O)N[C@@H](CC(N)=O)C(=O)N[C@@H](CC(=O)O)C(=O)N[C@@H](CCCCN)C(=O)N3)NC(=O)[C@H](C(C)C)NC(=O)[C@H](CC(C)C)NC(=O)[C@H](CC(N)=O)NC(=O)[C@@H]1CCCN1C(=O)[C@H](CCCNC(=N)N)NC2=O` [compound 302] (H-DCLGFMRKCFPDNDKCCRPNLVCSRTHKWCKYVF-NH2; disulfide 2-17, 9-23, 16-30) are within 1.5-fold of each other in IC50: 140 nM for the first, 110 nM for the second.

`CSCC[C@@H]1NC(=O)[C@H](Cc2ccccc2)NC(=O)CNC(=O)[C@H](CC(C)C)NC(=O)[C@@H](NC(=O)[C@@H](N)CC(=O)O)CSSC[C@@H]2NC(=O)[C@@H]3CSSC[C@@H](C(=O)N[C@@H](CCCCN)C(=O)N[C@@H](Cc4ccc(O)cc4)C(=O)N[C@H](C(=O)N[C@@H](Cc4ccccc4)C(N)=O)C(C)C)NC(=O)[C@H](Cc4c[nH]c5ccccc45)NC(=O)[C@H](CCCCN)NC(=O)[C@H](Cc4c[nH]cn4)NC(=O)[C@H]([C@@H](C)O)NC(=O)[C@H](CCCNC(=N)N)NC(=O)[C@H](CO)NC(=O)[C@H](CSSC[C@H](NC(=O)[C@H](CCCCN)NC(=O)[C@H](CCCNC(=N)N)NC1=O)C(=O)N[C@@H](C(C)C)C(=O)N1CCC[C@H]1C(=O)N[C@@H](CC(=O)O)C(=O)N[C@@H](CC(N)=O)C(=O)N[C@@H](CC(=O)O)C(=O)N[C@@H](CCCCN)C(=O)N3)NC(=O)[C@H](C(C)C)NC(=O)[C@H](CC(C)C)NC(=O)[C@H](CC(N)=O)NC(=O)[C@@H]1CCCN1C(=O)[C@H](CCCNC(=N)N)NC2=O` [compound 301] (H-DCLGFMRKCVPDNDKCCRPNLVCSRTHKWCKYVF-NH2; disulfide 2-17, 9-23, 16-30) and `CSCC[C@@H]1NC(=O)[C@H](Cc2ccccc2)NC(=O)CNC(=O)[C@H](CC(C)C)NC(=O)[C@@H](NC(=O)[C@@H](N)CC(=O)O)CSSC[C@@H]2NC(=O)[C@@H]3CSSC[C@@H](C(=O)N[C@@H](CCCCN)C(=O)N[C@@H](Cc4ccc(O)cc4)C(=O)N[C@H](C(=O)N[C@@H](Cc4ccccc4)C(N)=O)C(C)C)NC(=O)[C@H](Cc4c[nH]c5ccccc45)NC(=O)[C@H](CCCCN)NC(=O)[C@H](Cc4c[nH]cn4)NC(=O)[C@H]([C@@H](C)O)NC(=O)[C@H](CCCNC(=N)N)NC(=O)[C@H](CO)NC(=O)[C@H](CSSC[C@H](NC(=O)[C@H](CCCCN)NC(=O)[C@H](CCCNC(=N)N)NC1=O)C(=O)N[C@@H]([C@@H](C)O)C(=O)N1CCC[C@H]1C(=O)N[C@@H](CC(=O)O)C(=O)N[C@@H](CC(N)=O)C(=O)N[C@@H](CC(=O)O)C(=O)N[C@@H](CCCCN)C(=O)N3)NC(=O)[C@H](C(C)C)NC(=O)[C@H](CC(C)C)NC(=O)[C@H](CC(N)=O)NC(=O)[C@@H]1CCCN1C(=O)[C@H](CCCNC(=N)N)NC2=O` [compound 309] (H-DCLGFMRKCTPDNDKCCRPNLVCSRTHKWCKYVF-NH2; disulfide 2-17, 9-23, 16-30) are the same in IC50: 100 nM for the first, 100 nM for the second.

`CSCC[C@@H]1NC(=O)[C@H](Cc2ccccc2)NC(=O)CNC(=O)[C@H](CC(C)C)NC(=O)[C@@H](NC(=O)[C@@H](N)CC(=O)O)CSSC[C@@H]2NC(=O)[C@@H]3CSSC[C@@H](C(=O)N[C@@H](CCCCN)C(=O)N[C@@H](Cc4ccc(O)cc4)C(=O)N[C@H](C(=O)N[C@@H](Cc4ccccc4)C(N)=O)C(C)C)NC(=O)[C@H](Cc4c[nH]c5ccccc45)NC(=O)[C@H](CCCCN)NC(=O)[C@H](Cc4c[nH]cn4)NC(=O)[C@H]([C@@H](C)O)NC(=O)[C@H](CCCNC(=N)N)NC(=O)[C@H](CO)NC(=O)[C@H](CSSC[C@H](NC(=O)[C@H](CCCCN)NC(=O)[C@H](CCCNC(=N)N)NC1=O)C(=O)N[C@@H](Cc1c[nH]cn1)C(=O)N1CCC[C@H]1C(=O)N[C@@H](CC(=O)O)C(=O)N[C@@H](CC(N)=O)C(=O)N[C@@H](CC(=O)O)C(=O)N[C@@H](CCCCN)C(=O)N3)NC(=O)[C@H](C(C)C)NC(=O)[C@H](CC(C)C)NC(=O)[C@H](CC(N)=O)NC(=O)[C@@H]1CCCN1C(=O)[C@H](CCCNC(=N)N)NC2=O` [compound 304] (H-DCLGFMRKCHPDNDKCCRPNLVCSRTHKWCKYVF-NH2; disulfide 2-17, 9-23, 16-30) and `CSCC[C@@H]1NC(=O)[C@H](Cc2ccccc2)NC(=O)CNC(=O)[C@H](CC(C)C)NC(=O)[C@@H](NC(=O)[C@@H](N)CC(=O)O)CSSC[C@@H]2NC(=O)[C@@H]3CSSC[C@@H](C(=O)N[C@@H](CCCCN)C(=O)N[C@@H](Cc4ccc(O)cc4)C(=O)N[C@H](C(=O)N[C@@H](Cc4ccccc4)C(N)=O)C(C)C)NC(=O)[C@H](Cc4c[nH]c5ccccc45)NC(=O)[C@H](CCCCN)NC(=O)[C@H](Cc4c[nH]cn4)NC(=O)[C@H]([C@@H](C)O)NC(=O)[C@H](CCCNC(=N)N)NC(=O)[C@H](CO)NC(=O)[C@H](CSSC[C@H](NC(=O)[C@H](CCCCN)NC(=O)[C@H](CCCNC(=N)N)NC1=O)C(=O)N[C@@H](CO)C(=O)N1CCC[C@H]1C(=O)N[C@@H](CC(=O)O)C(=O)N[C@@H](CC(N)=O)C(=O)N[C@@H](CC(=O)O)C(=O)N[C@@H](CCCCN)C(=O)N3)NC(=O)[C@H](C(C)C)NC(=O)[C@H](CC(C)C)NC(=O)[C@H](CC(N)=O)NC(=O)[C@@H]1CCCN1C(=O)[C@H](CCCNC(=N)N)NC2=O` [compound 305] (H-DCLGFMRKCSPDNDKCCRPNLVCSRTHKWCKYVF-NH2; disulfide 2-17, 9-23, 16-30) are the same in IC50: 50 nM for the first, 50 nM for the second.

With `CC[C@H](C)[C@@H]1NC(=O)[C@@H]2CSSC[C@@H]3NC(=O)[C@H](C(C)C)NC(=O)[C@H](CC(C)C)NC(=O)[C@H](CC(N)=O)NC(=O)[C@@H]4CCCN4C(=O)[C@H](CCCCN(C)C)NC(=O)[C@H](CSSC[C@H](NC(=O)[C@@H](N)CC(=O)O)C(=O)N[C@@H](CC(C)C)C(=O)NCC(=O)N[C@@H](Cc4ccccc4)C(=O)N[C@@H](CCSC)C(=O)N[C@@H](CCCNC(=N)N)C(=O)N[C@@H](CCCCN)C(=O)N2)NC(=O)[C@H](CSSC[C@@H](C(=O)N[C@@H](CCCCN)C(=O)N[C@@H](Cc2ccc(O)cc2)C(=O)N[C@H](C(=O)N[C@@H](Cc2ccccc2)C(N)=O)C(C)C)NC(=O)[C@H](Cc2c[nH]c4ccccc24)NC(=O)[C@H](CCCCN)NC(=O)[C@H](Cc2c[nH]cn2)NC(=O)[C@H]([C@@H](C)O)NC(=O)[C@H](CCCNC(=N)N)NC(=O)[C@H](CO)NC3=O)NC(=O)[C@H](CCCCN)NC(=O)[C@H](CC(=O)O)NC(=O)[C@H](CC(N)=O)NC(=O)[C@H](CC(=O)O)NC(=O)[C@@H]2CCCN2C1=O` [compound 314] (H-DCLGFMRKCIPDNDKCC[Lys(Me2)]PNLVCSRTHKWCKYVF-NH2; disulfide 2-17, 9-23, 16-30) the IC50 was 210 nM.

Same assay, conditions: IonWorks Quattro, use-dependent; […]; read-out: IWQ Use Nav1.7 (μm)

Compared with `CC[C@H](C)[C@@H]1NC(=O)[C@@H]2CSSC[C@@H]3NC(=O)[C@H](C(C)C)NC(=O)[C@H](CC(C)C)NC(=O)[C@H](CC(N)=O)NC(=O)[C@@H]4CCCN4C(=O)[C@H](CCCNC(=N)N)NC(=O)[C@H](CSSC[C@H](NC(=O)[C@@H](N)CC(=O)O)C(=O)N[C@@H](CC(C)C)C(=O)NCC(=O)N[C@@H](Cc4ccccc4)C(=O)N[C@@H](CCSC)C(=O)N[C@@H](CCCNC(=N)N)C(=O)N[C@@H](CCCCN)C(=O)N2)NC(=O)[C@H](CSSC[C@@H](C(=O)N[C@@H](CCCCN)C(=O)N[C@@H](Cc2ccc(O)cc2)C(=O)N[C@H](C(N)=O)C(C)C)NC(=O)[C@H](Cc2c[nH]c4ccccc24)NC(=O)[C@H](CCCCN)NC(=O)[C@H](Cc2c[nH]cn2)NC(=O)[C@H]([C@@H](C)O)NC(=O)[C@H](CCCNC(=N)N)NC(=O)[C@H](CO)NC3=O)NC(=O)[C@H](CCCCN)NC(=O)[C@H](CC(=O)O)NC(=O)[C@H](CC(N)=O)NC(=O)[C@H](CC(=O)O)NC(=O)[C@@H]2CCCN2C1=O` [compound 415] (H-DCLGFMRKCIPDNDKCCRPNLVCSRTHKWCKYV-NH2; disulfide 2-17, 9-23, 16-30), `CC[C@H](C)[C@@H]1NC(=O)[C@@H]2CSSC[C@@H]3NC(=O)[C@H](C(C)C)NC(=O)[C@H](CC(C)C)NC(=O)[C@H](CC(N)=O)NC(=O)[C@@H]4CCCN4C(=O)[C@H](CCCNC(=N)N)NC(=O)[C@H](CSSC[C@H](NC(=O)[C@@H](N)CC(=O)O)C(=O)N[C@@H](CC(C)C)C(=O)NCC(=O)N[C@@H](Cc4ccccc4)C(=O)N[C@@H](CCSC)C(=O)N[C@@H](CCCNC(=N)N)C(=O)N[C@@H](CCCCN)C(=O)N2)NC(=O)[C@H](CSSC[C@@H](C(=O)N[C@@H](CCCCN)C(=O)N[C@@H](Cc2ccc(O)cc2)C(N)=O)NC(=O)[C@H](Cc2c[nH]c4ccccc24)NC(=O)[C@H](CCCCN)NC(=O)[C@H](Cc2c[nH]cn2)NC(=O)[C@H]([C@@H](C)O)NC(=O)[C@H](CCCNC(=N)N)NC(=O)[C@H](CO)NC3=O)NC(=O)[C@H](CCCCN)NC(=O)[C@H](CC(=O)O)NC(=O)[C@H](CC(N)=O)NC(=O)[C@H](CC(=O)O)NC(=O)[C@@H]2CCCN2C1=O` [compound 416] (H-DCLGFMRKCIPDNDKCCRPNLVCSRTHKWCKY-NH2; disulfide 2-17, 9-23, 16-30) is 1.6-fold lower in IC50: 2350 nM for the first, 1500 nM for the second.
